# Tested on: pERK level in H358 cells
# Assay: pERK and ERK protein content assay in H358 cells (ELISA)
# Format: cell-based
# Settings: Homo sapiens, NCI-H358, compound 1 μM, 24 h, pERK/ERK ratio compared with DMSO group, read-out: Inhibition rate (%) of pERK level
# Procedure, shortened: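 H358 cells grown one day, then treated 24 h with compound at 1 μM. pERK and ERK in lysates measured by ELISA; pERK/ERK ratio expressed as percent inhibition versus DMSO.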
row,Compound,inhibition at 1 µM [%]
1,C=CC(=O)N1CC2(CCN(c3nc(N4CC(N5CC[C@@H](C)C5)C4)nc4c(OCC(F)(F)F)c(-c5c(C)c(F)cc6[nH]ncc56)c(C5CC5)cc34)CC2)C1 [Compound 328],> 90
2,C=CC(=O)N1CC2(CCN(c3nc(N4CC5(CC(C#N)C5)C4)nc4c(OCC(F)(F)F)c(-c5c(C)ccc6[nH]ncc56)c(C5CC5)cc34)CC2)C1 [Compound 285],50 to 90
3,C=CC(=O)N1CC2(CCN(c3nc(O[C@H]4C[C@@H]5C[C@H]4CS5(=O)=O)nc4c(OCC(F)(F)F)c(-c5c(C)ccc6[nH]ncc56)c(C5CC5)cc34)CC2)C1 [Compound 314],> 90
4,C=CC(=O)N1CC2(CCN(c3nc(N4CCC(N5CCC5)CC4)nc4c(OCC(F)(F)F)c(-c5c(C)ccc6[nH]ncc56)c(C5CC5)cc34)CC2)C1 [Compound 215],> 90
5,C=C(F)C(=O)N1CC2(CCN(c3nc(N4CC5(CCN(CC6CC6)CC5)C4)nc4c(OCC(F)(F)F)c(-c5c(C)ccc6[nH]ncc56)c(C5CC5)cc34)CC2)C1 [Compound 84],> 90
6,C=CC(=O)N1CC2(CCN(c3nc(N4CC(N(C)CC(F)(F)F)C4)nc4c(OCC(F)(F)F)c(-c5c(C)ccc6[nH]ncc56)c(C5CC5)cc34)CC2)C1 [Compound 167],> 90
7,C=C(F)C(=O)N1CC2(CCN(c3nc(OC4CN(C)C4)nc4c(OCC(F)(F)F)c(-c5c(C)ccc6[nH]ncc56)c(C5CC5)cc34)CC2)C1 [Compound 110],> 90
8,C=C(C)C(=O)N1CC2(CCN(c3nc(OC4CCN(CCOC)CC4)nc4c(OCC(F)(F)F)c(-c5c(C)ccc6[nH]ncc56)c(C5CC5)cc34)CC2)C1 [Compound 17],> 90
9,C=CC(=O)N1CC2(CCN(c3nc(N(C)CCN4CCCC4)nc4c(OCC(F)(F)F)c(-c5c(C)ccc6[nH]ncc56)c(C5CC5)cc34)CC2)C1 [Compound 232],> 90
10,C=C(F)C(=O)N1CC2(CCN(c3nc(N4CCC5(CC4)CN(CCOC)C5)nc4c(OCC(F)(F)F)c(-c5c(C)ccc6[nH]ncc56)c(C5CC5)cc34)CC2)C1 [Compound 104],50 to 90

# Tested on: H358 cells
# Assay: Antiproliferative activity against H358 cells (Cell Titer Glow, ultra-low attachment plate)
# Format: cell-based
# Settings: Homo sapiens, NCI-H358, 72 h, 96-well ultra-low attachment plate, three days after addition of compound, Cell Titer Glow
# Protocol: 2500 H358 cells were seeded in a 96-well ultra-low attachment plate (corning, 7007). After one day of growth, a serially diluted compound (a maximum concentration of 5 μM, 5-fold dilution, a total of five doses) was added. Three days after the addition of the compound, Cell Titer Glow (Promega, G9681) was added to evaluate pellet growth, and the IC50 value was calculated.
row,Compound,IC50 [nM]
1,C=CC(=O)N1CC2(CCN(c3nc(N4CCC(N5CCC5)CC4)nc4c(OCC(F)(F)F)c(-c5c(C)ccc6[nH]ncc56)c(C5CC5)cc34)CC2)C1 [Compound 215],< 300
2,C=C(F)C(=O)N1CC2(CCN(c3nc(N4CC5(CCN(CC6CC6)CC5)C4)nc4c(OCC(F)(F)F)c(-c5c(C)ccc6[nH]ncc56)c(C5CC5)cc34)CC2)C1 [Compound 84],< 300
3,C=CC(=O)N1CC2(CCN(c3nc(N4CC(N(C)CC(F)(F)F)C4)nc4c(OCC(F)(F)F)c(-c5c(C)ccc6[nH]ncc56)c(C5CC5)cc34)CC2)C1 [Compound 167],300 to 1000
4,C=C(F)C(=O)N1CC2(CCN(c3nc(OC4CN(C)C4)nc4c(OCC(F)(F)F)c(-c5c(C)ccc6[nH]ncc56)c(C5CC5)cc34)CC2)C1 [Compound 110],< 300
5,C=C(C)C(=O)N1CC2(CCN(c3nc(OC4CCN(CCOC)CC4)nc4c(OCC(F)(F)F)c(-c5c(C)ccc6[nH]ncc56)c(C5CC5)cc34)CC2)C1 [Compound 17],< 300
6,C=C(F)C(=O)N1CC2(CCN(c3nc(N4CCC5(CC4)CN(CCOC)C5)nc4c(OCC(F)(F)F)c(-c5c(C)ccc6[nH]ncc56)c(C5CC5)cc34)CC2)C1 [Compound 104],300 to 1000

# Further lines, results first:
row,IC50 [nM],Compound
1,< 300,C=CC(=O)N1CC2(CCN(c3nc(N4CC(N5CC[C@@H](C)C5)C4)nc4c(OCC(F)(F)F)c(-c5c(C)c(F)cc6[nH]ncc56)c(C5CC5)cc34)CC2)C1 [Compound 328]
2,300 to 1000,C=CC(=O)N1CC2(CCN(c3nc(N4CC5(CC(C#N)C5)C4)nc4c(OCC(F)(F)F)c(-c5c(C)ccc6[nH]ncc56)c(C5CC5)cc34)CC2)C1 [Compound 285]
3,< 300,C=CC(=O)N1CC2(CCN(c3nc(O[C@H]4C[C@@H]5C[C@H]4CS5(=O)=O)nc4c(OCC(F)(F)F)c(-c5c(C)ccc6[nH]ncc56)c(C5CC5)cc34)CC2)C1 [Compound 314]
4,< 300,C=CC(=O)N1CC2(CCN(c3nc(N(C)CCN4CCCC4)nc4c(OCC(F)(F)F)c(-c5c(C)ccc6[nH]ncc56)c(C5CC5)cc34)CC2)C1 [Compound 232]

# Source: patent US12479843B2, “Spiro ring-containing quinazoline compounds” (WIGEN BIOMEDICINE TECHNOLOGY (SHANGHAI) CO., LTD., priority 2019, dated 2025)
